In patent EP2998292A1, “Naphthyl sulfonamide derivatives as KEAP-1 modulators for the treatment of diabetes, obesity, dyslipidemia and related disorders” (SANOFI, priority 2014, dated 2016):

These compounds were tested against T1, human Keap1 kelch domain (amino acids Ala321-Thr609) (Homo sapiens, UniProt Q14145) (assay: Keap1-Nrf2 peptide binding assay (fluorescence polarisation)). Conditions: binding of Keap1 kelch domain (20 nM) to fluorescently labeled Nrf2 peptide Alexa633-AFFAQLQLDEETGEFL (50 nM); ambient temperature.
T1 construct: human Keap1 kelch domain (amino acids Ala321-Thr609)
Procedure: Keap1-Nrf2 peptide binding assay
A fluorescence polarisation assay was used to measure binding of the human Keap1 kelch domain (amino acids Ala321-Thr609) to a fluorescently labeled peptide containing a Keap1 binding site of human Nrf2 (Alexa633-AFFAQLQLDEETGEFL; JPT Technologies, Berlin, Germany). Two microliters of test compound in reaction buffer (phosphate-buffered saline, 2 mM DL-dithiothreitol, 0.015 % (v/v) Brij-35) containing 6 % (v/v) DMSO were mixed with two microliters of the Keap1 kelch domain in reaction buffer in a black 384-well small volume microtiter plate and incubated at ambient temperature for 15 minutes. Thereafter, two microliters were added of the fluorescently labeled Nrf2 peptide in reaction buffer, and the mixture was incubated for a further 30 minutes at ambient temperature. Final concentrations of the Keap1 kelch domain and the fluorescently labeled Nrf2 peptide were 20 nM and 50 nM, respectively. Fluorescence polarization (FP) was measured at excitation and emission wavelengths of 635 nm and 660 nm, respectively. Positive controls for binding (two microliters of reaction buffer containing 6 % (v/v) DMSO instead of test compound in the same buffer) and negative controls (as positive controls, but without Keap1 kelch domain) were included on each microtiter plate. Data were expressed as percent-inhibition values: percent inhibition = 100⋅(1-(|FPcompound-FPnegative control|)/(|FPpositive control-FPnegative control|)) [formula]
IC50 values were determined by testing different compound concentrations and fitting the resulting percent-inhibition values to the following equation using XLFit4: percent inhibition = A + (B-A)/(1 + (((IC50)/([Compound])))^D) [formula]
Parameter A was set to zero, pre-fit values for parameters B and D were set to 100 and 1, respectively.

T1 sequence (Q14145 321-609): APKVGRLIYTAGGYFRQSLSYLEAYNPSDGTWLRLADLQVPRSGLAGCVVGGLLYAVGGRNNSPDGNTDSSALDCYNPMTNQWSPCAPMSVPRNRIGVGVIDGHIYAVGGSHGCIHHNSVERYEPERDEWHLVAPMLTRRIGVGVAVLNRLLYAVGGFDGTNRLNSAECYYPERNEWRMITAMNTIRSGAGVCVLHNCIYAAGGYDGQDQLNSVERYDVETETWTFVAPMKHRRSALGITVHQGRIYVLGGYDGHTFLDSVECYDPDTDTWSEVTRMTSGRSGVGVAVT

Compound	IC50
Cc1cc(C)c(C)c(S(=O)(=O)Nc2cc(C(CC(=O)O)c3ccccc3)cc3ccccc23)c1C (stereo not shown) [Example 4, 3-phenyl-3-[4-[(2,3,5,6-tetramethylphenyl)sulfonylamino]-2-naphthyl]propanoic acid]	14.4 µM
CCCCCC(CC(=O)O)c1cc(NS(=O)(=O)c2c(C)c(C)cc(C)c2C)c2ccccc2c1 (stereo not shown) [Example 1, 3-[4-[(2,3,5,6-tetramethylphenyl)sulfonylamino]-2-naphthyl]octanoic acid]	13 µM
Cc1cc(C)c(C)c(S(=O)(=O)Nc2cc(N3CCCC(C(=O)O)C3)cc3ccccc23)c1C (stereo not shown) [Example 12, 1-[4-[(2,3,5,6-tetramethylphenyl)sulfonylamino]-2-naphthyl]piperidine-3-carboxylic acid; 2,2,2-trifluoroacetic acid]	8.6 µM
Cc1cc(C)c(C)c(S(=O)(=O)Nc2cc(C3=CCC(C(=O)O)CC3)cc3ccccc23)c1C (stereo not shown) [Example 9, 4-[4-[(2,3,5,6-tetramethylphenyl)sulfonylamino]-2-naphthyl]cyclohex-3-ene-1-carboxylic acid]	2.9 µM
Cc1cc(C)c(C)c(S(=O)(=O)Nc2cc(C3CCCC3C(=O)O)cc3ccccc23)c1C (stereo not shown) [Example 3, 2-[4-[(2,3,5,6-tetramethylphenyl)sulfonylamino]-2-naphthyl]cyclopentaneca rboxylic acid]	5.2 µM
Cc1cc(C)c(C)c(S(=O)(=O)Nc2cc(CC(C(=O)O)C(F)(F)F)cc3ccccc23)c1C (stereo not shown) [Example 10, 3,3,3-trifluoro-2-[[4-[(2,3,5,6-tetramethylphenyl)sulfonylamino]-2-naphthyl]methyl]propanoi c acid]	15.7 µM
Cc1cc(C)c(C)c(S(=O)(=O)Nc2ccc(CC(C(=O)O)c3cccc(C(F)(F)F)c3)c3ccccc23)c1C (stereo not shown) [Example 14, 3-[4-[(2,3,5,6-tetra-methylphenyl)sulfonylamino]-1-naphthyl]-2-[3-(trifluoromethyl)phenyl]pr opanoic acid]	4 µM
1-[4-[(5-chloro-1,3-dimethyl-pyrazol-4-yl)sulfonylamino]-2-naphthyl]piperidine-3-carboxylic acid; 2,2,2-trifluoroacetic acid [Example 11]	26.7 µM
CCCCCC(Oc1cc(NS(=O)(=O)c2c(C)c(C)cc(C)c2C)c2ccccc2c1)C(=O)O (stereo not shown) [Example 5, 2-[[4-[(2,3,5,6-tetramethylphenyl)sulfonylamino]-2-naphthyl]oxy]heptanoic acid]	3.3 µM
Cc1cc(C)c(C)c(S(=O)(=O)Nc2ccc(C(CC(=O)O)c3ccccc3)c3ccccc23)c1C (stereo not shown) [Example 13, 3-phenyl-3-[4-[(2,3,5,6-tetramethylphenyl)sulfonylamino]-1-naphthyl]propanoic acid]	6.5 µM
